Experimental data: US20060041013A1, “Alanosine formulations and methods of use” (priority 2004, published 2006)
Several values for one entry are separate records, joined by “and”; a condition that tells them apart may be missing. Equal values may be shown once.

Key:
[1] = physchem; assay type: physicochemical
Procedure: The solution was stirred on a stir plate at room temperature and the pH was adjusted by adding 20 microliter (μL) aliquots of 1N NaOH. After the addition of each aliquot, the resulting pH was measured potentiometrically and the results were recorded. The results of the titration appear in FIG. 1. The solution was also visually inspected during the course of the titration experiment to observe full dissolution of the alanosine.

[2] = Temperature and pH effects on stability (5 days at 5° C. or 80° C.); assay type: physicochemical; settings: for osmolality: about 20 mg/mL
Procedure: Stability studies were then performed at different pHs. […] The pH of the solution was then adjusted in increments of 0.5 using 1N NaOH. Stability measurements of two duplicate samples were taken at each increment, beginning at pH 6.5 up through pH 9.0, and one sample was taken at pH 12.2. One set of samples was stored at 5° C., the other at 80° C., for five days, after which they were analyzed for pH, physical appearance, osmolality, and impurities. […] Here, impurities were determined by reverse phase HPLC as described herein.

[3] = tested on: HS-766T; test: Intracellular ATP levels (Cell-Titer Glow); assay type: cell-based; settings: Hs766T, 72 h; HS-766T, Pancreatic, MTAP Positive; 3 day treatment
Procedure: (§1) MTAP status was determined using immunoblot analyses and correlated with the ability of an MTA analog to rescue ATP levels in cell lines treated with SDX-102. ATP levels were measured using Cell-Titer Glow™ (Promega) after a 3 day treatment with titrated concentrations of either SDX-102 or pemetrexed.
(§2) ATP values measured using Cell-Titer Glow™ (Promega) after 3 days exposure to the MTA analog. Solid lines in FIG. 8 represent the effect of titrations of SDX-102 from 0.05 μM-20 μM (FIG. 8A) or pemetrexed from 0.01 μM-5 μM (FIG. 8B) on cellular ATP levels. The dotted lines represent the effect of a single concentration of SDX-102 (10 μM) or pemetrexed (2.5 μM) with a titration of an MTA analog from 0.1 μM-50 μM.

[4] = tested on: NCI-H226; test: Intracellular ATP levels (Cell-Titer Glow); assay type: cell-based; settings: Homo sapiens, 72 h; NCI-H226, Mesothelioma, MTAP Positive; 3 day treatment
Procedure: as §1, §2

[5] = tested on: A-427; test: Intracellular ATP levels (Cell-Titer Glow); assay type: cell-based; settings: Homo sapiens, 72 h; A-427, NSCLC, MTAP Positive; 3 day treatment
Procedure: as §1, §2

[6] = tested on: BxPC3; test: Cell viability MTT assay (Example 3); assay type: cell-based; settings: Homo sapiens, BXPC-3, 72 h; BxPC3, Pancreatic, MTAP Negative; 3 days
[7] = tested on: HS-766T; test: Cell viability MTT assay (Example 3); assay type: cell-based; settings: Hs766T, 72 h, Pancreatic, MTAP Positive, 3 days
[8] = tested on: NCI-H226; test: Cell viability MTT assay (Example 3); assay type: cell-based; settings: Homo sapiens, 72 h; NCI-H226, Mesothelioma, MTAP Positive; 3 days
[9] = Chirality analysis: conversion of L-alanosine to D-alanosine (chiral HPLC); assay type: physicochemical
Procedure: The following HPLC procedure was used to separate the L- and D-enantiomers of alanosine. The HPLC system (Agilent 1100) employed a 4.6 mm×150 mm column (Phenomenex) containing 5 μm particles (Chirex 3126, (D)-penicillamine) as the stationary phase. The system was equipped with both UV and polarimeter detectors. The UV detector was set to 254 nm to monitor products being eluted from the column, while the polarimeter detector was set to 670 nm. The eluent was 2 mM CuSO4/MeOH 70-30. The flow rate was 1.7 mL/min. at a pressure of 200 bar. For each run, a 100 μL sample containing 0.5 mg/mL in 2 mM CuSO4 was injected onto the column. […] To reverse the elution order, (L)-penicillamine could be used.

[10] = humans, intravenous, biphasic plasma clearance; times approximate; cited from earlier work
[11] = 6 months, 20 mg/mL, pH 8.5
Procedure: Each solution was divided into 5 mL aliquots and placed in 6 mL vials sealed with Teflon-faced screw caps (VWR Scientific, catalogue No. 66011-880). Vials of each solution were placed at five different temperatures, −20° C., 5° C., 25° C., 40° C., and 60° C., and aliquots were analyzed at various time points to determine stability.

[12] = tested on: NCI-H2452; test: Docetaxel, 5-FU, SDX-102 alone or combined, MTT/MTS cytotoxicity (Example 4); assay type: cell-based; settings: Homo sapiens; NCI-H2452, Mesothelioma, single agent, MTT 72 hours
[13] = cited from earlier work
[14] = tested on: PANC-1; test: Docetaxel, 5-FU, SDX-102 alone or combined, MTT/MTS cytotoxicity (Example 4); assay type: cell-based; settings: Homo sapiens; PANC-1, Pancreatic, single agent, MTT 72 hours
[15] = t1 yr., pH 7.5, 25° C., listed as L
[16] = t1 yr., pH 8.5, 25° C., listed as L
[17] = t6 mo., pH 8.5, 25° C., listed as L

Q: Which solubility in water [1] does the source give for `NC(CN(O)N=O)C(=O)O` [L-alanosine, L(−)-2-amino-3-nitrosohydroxylaminopropionic acid] here?
A: poor solubility

Q: What about the “pH that must be exceeded for full dissolution” value ([1]; free base, approx. 20 mg/mL in water) of the same compound?
A: exceeded 6.2

Q: What about the pKa ([1]; pKa (first)) of the same compound?
A: ~5.5

Q: What about the pKa ([1]; pKa (second)) of the same compound?
A: ~8.5

Q: And the “impurities as a function of pH” value ([2]; 80° C. five days, pH 6.5-12.2, HPLC)?
A: inverse relationship between the amount of impurities and pH

Q: What about the osmolality ([2]; pH 6.5, stored at 5° C. five days) of the same compound?
A: 225 mOsm

Q: What about the osmolality ([2]; pH 6.5, stored at 80° C. five days) of the same compound?
A: 247 mOsm

Q: What about the osmolality ([2]; pH 8.0, stored at 5° C. five days) of the same compound?
A: 272 mOsm

Q: And the osmolality ([2]; pH 8.0, stored at 80° C. five days)?
A: 273 mOsm

Q: What about the IC50 [3] of the same compound?
A: 2000 nM

Q: And the IC50 [4]?
A: 400 nM

Q: And the IC50 [5]?
A: 1500 nM

Q: What about the IC50 [6] of the same compound?
A: 6 µM

Q: And the IC50 [7]?
A: > 20 µM

Q: What about the IC50 [8] of the same compound?
A: 1500 nM

Q: What about the “conversion to D-alanosine” value ([9]; after one year at 5° C., pH 7.5 or 8.5) of the same compound?
A: no conversion to D-alanosine

Q: And the “conversion to D-alanosine at pH 8.5 compared to pH 7.5” value ([9]; storage at 25° C.)?
A: 5-10 times

Q: And the “% Total Peak Area L” value ([9]; t0)?
A: 100%

Q: And the “% Total Peak Area L” value ([9]; t1 yr., pH 7.5, 5° C.)?
A: 100%

Q: What about the “% Total Peak Area D” value [9, 15] of the same compound?
A: 0.99% and 0.78%

Q: And the “% Total Peak Area L” value [9, 15]?
A: 99.01% and 99.22%

Q: And the “% Total Peak Area L” value ([9]; t1 yr., pH 8.5, 5° C.)?
A: 100%

Q: What about the “% Total Peak Area D” value [9, 16] of the same compound?
A: 4.45% and 4.56%

Q: What about the “% Total Peak Area L” value [9, 16] of the same compound?
A: 95.55% and 95.44%

Q: What about the “% Total Peak Area L” value ([9]; t6 mo., pH 8.5, 5° C.) of the same compound?
A: 100%

Q: What about the “% Total Peak Area D” value [9, 17] of the same compound?
A: 2.03% and 2.04%

Q: And the “% Total Peak Area L” value [9, 17]?
A: 97.97% and 97.96%

Q: And the t1/2α [10]?
A: ~14 min

Q: What about the t1/2β [10] of the same compound?
A: ~99 min

Q: What about the “stability versus freshly reconstituted lyophilizate (HPLC)” value [11] of the same compound?
A: as stable after storage at 5 °C for six months as a composition prepared by freshly reconstituting lyophilized L-alanosine

Q: What about the IC50 [12] of the same compound?
A: 1000 ± 500 nM

Q: What about the “single bolus dose at which renal toxicity reported” value ([13]; human, in vivo) of the same compound?
A: above 4 g/m^2 body weight

Q: What about the dose-limiting toxicity ([13]; phase II, adults with acute non-lymphoblastic leukemia, continuous infusion about 125 mg/m^2 for 5 days) of the same compound?
A: mucositis

Q: What about the IC50 [14] of the same compound?
A: 10 ± 5 µM
